Experimental data from PubChem BioAssay AID248 (DTP/NCI, 2004).
Several values for one entry are separate records, joined by “and”; a condition that tells them apart may be missing. Equal values may be shown once. Toxic doses and inconclusive results are not listed. No stated cut-off is given here; in the data, active means T/C of 150% or more; inactive means T/C below 125%.

Tested on: L1210 leukemia ip in BDF1 mice, survival T/C
Assay: NCI In Vivo Anticancer Drug Screen. Data for tumor model L1210 Leukemia (intraperitoneal) in B6D2F1 (BDF1) mice
Details: endpoint: mean survival time, higher = longer survival
In short: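 Antitumor effect is assessed in tumor-bearing animals. Survival in the compound arm is compared with a vehicle-dosed control arm and expressed as their quotient.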

[1] = dose: 50.0 mg/kg/injection, schedule: Q01DX001 (ip), vehicle: saline
[2] = dose: 100.0 mg/kg/injection, schedule: Q01DX001 (ip), vehicle: saline
[3] = dose: 200.0 mg/kg/injection, schedule: Q01DX001 (ip), vehicle: saline
[4] = dose: 400.0 mg/kg/injection, schedule: Q01DX001 (ip), vehicle: saline
[5] = dose: 100.0 mg/kg/injection, schedule: Q01DX009 (ip), vehicle: saline with Tween-80
[6] = dose: 200.0 mg/kg/injection, schedule: Q01DX009 (ip), vehicle: saline with Tween-80
[7] = dose: 400.0 mg/kg/injection, schedule: Q01DX009 (ip), vehicle: saline with Tween-80
[8] = dose: 100.0 mg/kg/injection, schedule: Q01DX001 (ip), vehicle: Klucel (hydroxypropylcellulose) (HPC)
[9] = dose: 200.0 mg/kg/injection, schedule: Q01DX001 (ip), vehicle: Klucel (hydroxypropylcellulose) (HPC)
[10] = dose: 400.0 mg/kg/injection, schedule: Q01DX001 (ip), vehicle: Klucel (hydroxypropylcellulose) (HPC)
[11] = dose: 100.0 mg/kg/injection, schedule: Q01DX009 (ip), vehicle: saline
[12] = dose: 200.0 mg/kg/injection, schedule: Q01DX009 (ip), vehicle: saline
[13] = dose: 100.0 mg/kg/injection, schedule: Q04DX003 (ip), vehicle: Klucel (hydroxypropylcellulose) (HPC)
[14] = dose: 200.0 mg/kg/injection, schedule: Q04DX003 (ip), vehicle: Klucel (hydroxypropylcellulose) (HPC)
[15] = dose: 400.0 mg/kg/injection, schedule: Q04DX003 (ip), vehicle: Klucel (hydroxypropylcellulose) (HPC)
[16] = dose: 100.0 mg/kg/injection, schedule: Q04DX003 (ip), vehicle: saline with Tween-80
[17] = dose: 200.0 mg/kg/injection, schedule: Q04DX003 (ip), vehicle: saline with Tween-80
[18] = dose: 400.0 mg/kg/injection, schedule: Q04DX003 (ip), vehicle: saline with Tween-80
[19] = dose: 75.0 mg/kg/injection, schedule: Q01DX009 (ip), vehicle: saline

Measured: T/C

OC1COC(n2cnc3c(=S)nc[nH]c32)C(O)C1O (stereo not given)
inactive: dose: 5.0 mg/kg/injection, schedule: Q01DX001 (ip), vehicle: saline 98 % of control | dose: 10.0 mg/kg/injection, schedule: Q01DX001 (ip), vehicle: saline 102 % of control | dose: 20.0 mg/kg/injection, schedule: Q01DX001 (ip), vehicle: saline 98 % of control | dose: 40.0 mg/kg/injection, schedule: Q01DX001 (ip), vehicle: saline 96 % of control | [1] 115 % of control | dose: 80.0 mg/kg/injection, schedule: Q01DX001 (ip), vehicle: saline 98 % of control | [2] 105 % of control and 100 % of control | [3] 111 % of control and 100 % of control and 101 % of control | [4] 101 % of control and 103 % of control

CCOC(=O)C(Cc1ccc(OCc2ccccc2)c(OCc2ccccc2)c1)(NC=O)C(=O)OCC
inactive: dose: 100.0 mg/kg/injection, schedule: Q01DX001 (ip), vehicle: other 94 % of control | dose: 200.0 mg/kg/injection, schedule: Q01DX001 (ip), vehicle: other 92 % of control | dose: 400.0 mg/kg/injection, schedule: Q01DX001 (ip), vehicle: other 87 % of control

COc1ccc2c(c1)CCC1=C2CCC(C)(C(=O)O)N1 (stereo not given)
inactive: [5] 98 % of control | [6] 95 % of control | [7] 87 % of control

CCc1cc(C)cc(OC(=O)Nc2cccc(Cl)c2)c1
inactive: [5] 88 % of control | [6] 90 % of control

C[CH2][Ge]([CH2]C)[CH2]C.C[CH2][Ge]([CH2]C)[CH2]C
inactive: dose: 100.0 mg/kg/injection, schedule: Q01DX001 (ip), vehicle: saline with Tween-80 94 % of control | dose: 100.0 mg/kg/injection, schedule: Q04DX002 (ip), vehicle: saline with Tween-80 95 % of control | dose: 200.0 mg/kg/injection, schedule: Q01DX001 (ip), vehicle: saline with Tween-80 90 % of control | dose: 200.0 mg/kg/injection, schedule: Q04DX002 (ip), vehicle: saline with Tween-80 95 % of control | dose: 400.0 mg/kg/injection, schedule: Q04DX002 (ip), vehicle: saline with Tween-80 92 % of control

C/C=C/CC/C(=N\Nc1ccc([N+](=O)[O-])cc1[N+](=O)[O-])c1ccccc1
inactive: [8] 96 % of control | [9] 96 % of control | [10] 100 % of control

CCCCCCCCCCCCCCCCN1CCCN(CCCCCCCCCCCCCCCC)CC1
inactive: dose: 25.0 mg/kg/injection, schedule: Q01DX009 (ip), vehicle: saline 107 % of control and 113 % of control | dose: 50.0 mg/kg/injection, schedule: Q01DX009 (ip), vehicle: saline 95 % of control and 100 % of control | [11] 94 % of control and 102 % of control | [12] 91 % of control

Nc1ccc(C(=O)O)cc1S(=O)(=O)O
inactive: [8] 102 % of control

COC(=O)c1n[nH]c(C)c1N=NN1CCOCC1
inactive: dose: 75.0 mg/kg/injection, schedule: Q01DX001 (ip), vehicle: saline 105 % of control | dose: 150.0 mg/kg/injection, schedule: Q01DX001 (ip), vehicle: saline 103 % of control | dose: 300.0 mg/kg/injection, schedule: Q01DX001 (ip), vehicle: saline 105 % of control

COc1ccc(NC(C)=O)cc1S(=O)(=O)F
inactive: [8] 93 % of control | [13] 102 % of control | [9] 88 % of control | [14] 104 % of control | [10] 93 % of control | [15] 96 % of control

C=CCCCCn1c2ccccc2c2c(C)c3cnccc3c(C)c21
inactive: [16] 91 % of control | [17] 91 % of control | [18] 92 % of control

COC(=O)c1nccnc1N
inactive: dose: 50.0 mg/kg/injection, schedule: Q01DX009 (ip), vehicle: Klucel (hydroxypropylcellulose) (HPC) 94 % of control | dose: 75.0 mg/kg/injection, schedule: Q01DX001 (ip), vehicle: alcohol 108 % of control | dose: 100.0 mg/kg/injection, schedule: Q01DX009 (ip), vehicle: Klucel (hydroxypropylcellulose) (HPC) 97 % of control | [13] 94 % of control | dose: 150.0 mg/kg/injection, schedule: Q01DX001 (ip), vehicle: alcohol 105 % of control | dose: 200.0 mg/kg/injection, schedule: Q01DX009 (ip), vehicle: Klucel (hydroxypropylcellulose) (HPC) 108 % of control | [14] 92 % of control | dose: 300.0 mg/kg/injection, schedule: Q01DX001 (ip), vehicle: alcohol 100 % of control | [15] 95 % of control

O=C(Nc1ccc(S(=O)(=O)NC2CCCCC2)cc1)Oc1ccc([N+](=O)[O-])cc1
inactive: [2] 96 % of control | [3] 100 % of control | [4] 100 % of control

CC1(C)C/C(=C\c2cccc([N+](=O)[O-])c2)C(=O)c2ccccc21
inactive: [8] 94 % of control | [9] 93 % of control | [10] 94 % of control

CC(=O)Nc1ncc(Oc2ccc(Cl)cc2Cl)c(=O)[nH]1
inactive: dose: 50.0 mg/kg/injection, schedule: Q01DX001 (ip), vehicle: carboxymethylcellulose (CMC) 102 % of control | dose: 100.0 mg/kg/injection, schedule: Q01DX001 (ip), vehicle: carboxymethylcellulose (CMC) 119 % of control | dose: 200.0 mg/kg/injection, schedule: Q01DX001 (ip), vehicle: carboxymethylcellulose (CMC) 96 % of control | dose: 400.0 mg/kg/injection, schedule: Q01DX001 (ip), vehicle: carboxymethylcellulose (CMC) 102 % of control

CC1(C)OCC(C2OC(C)(C)OC2C2COC(C)(C)O2)O1 (stereo not given)
inactive: dose: 87.5 mg/kg/injection, schedule: Q04DX002 (ip), vehicle: saline 100 % of control | dose: 175.0 mg/kg/injection, schedule: Q04DX002 (ip), vehicle: saline 97 % of control | dose: 350.0 mg/kg/injection, schedule: Q04DX002 (ip), vehicle: saline 93 % of control

CCCOC(=O)c1cncc(C(=O)OCCC)c1
inactive: [16] 94 % of control | [17] 105 % of control | [18] 100 % of control

O=C(Nc1ccc(C2=NC3CCCCC3N2)cc1)c1ccc(C(=O)Nc2ccc(C3=NC4CCCCC4N3)cc2)cc1 (stereo not given)
inactive: dose: 15.0 mg/kg/injection, schedule: Q01DX Z (ip), vehicle: carboxymethylcellulose (CMC) 96 % of control | dose: 30.0 mg/kg/injection, schedule: Q01DX Z (ip), vehicle: carboxymethylcellulose (CMC) 92 % of control | dose: 60.0 mg/kg/injection, schedule: Q01DX Z (ip), vehicle: carboxymethylcellulose (CMC) 96 % of control | dose: 120.0 mg/kg/injection, schedule: Q01DX Z (ip), vehicle: carboxymethylcellulose (CMC) 103 % of control

CC(=O)c1ccc2ccc3ccccc3c2c1
inactive: [19] 98 % of control | dose: 100.0 mg/kg/injection, schedule: Q04DX003 (ip), vehicle: saline 98 % of control | dose: 150.0 mg/kg/injection, schedule: Q01DX009 (ip), vehicle: saline 98 % of control | dose: 200.0 mg/kg/injection, schedule: Q04DX003 (ip), vehicle: saline 101 % of control | dose: 300.0 mg/kg/injection, schedule: Q01DX009 (ip), vehicle: saline 95 % of control | dose: 400.0 mg/kg/injection, schedule: Q04DX003 (ip), vehicle: saline 101 % of control

CC1=CC(=O)CC(C)C1 (stereo not given)
inactive: [2] 111 % of control | [3] 94 % of control | [4] 103 % of control

CC1OCCCCO1
inactive: [1] 106 % of control | [2] 102 % of control | [11] 96 % of control and 112 % of control | dose: 100.0 mg/kg/injection, schedule: Q04DX002 (ip), vehicle: saline 108 % of control and 86 % of control | [3] 103 % of control | [12] 102 % of control and 108 % of control | dose: 200.0 mg/kg/injection, schedule: Q04DX002 (ip), vehicle: saline 93 % of control and 100 % of control | dose: 400.0 mg/kg/injection, schedule: Q01DX009 (ip), vehicle: saline 98 % of control and 112 % of control | dose: 400.0 mg/kg/injection, schedule: Q04DX002 (ip), vehicle: saline 93 % of control and 95 % of control

CCOC(=O)CC1C(=O)Oc2ccc(O)cc21 (stereo not given) (tested in a mixture with another compound)
inactive: [5] 100 % of control | [16] 96 % of control | [6] 97 % of control | [17] 110 % of control | [7] 90 % of control | [18] 94 % of control

NNC(=O)C(N)Cc1ccccc1 (stereo not given)
inactive: [2] 101 % of control | [3] 105 % of control

NCC1CCCC1N (stereo not given)
inactive: dose: 18.8 mg/kg/injection, schedule: Q01DX009 (ip), vehicle: saline 102 % of control | dose: 37.5 mg/kg/injection, schedule: Q01DX009 (ip), vehicle: saline 102 % of control | [19] 97 % of control
